Reference: EP4786461A1, “PYRAZOLE CARBOXYLIC ACID DERIVATIVE AND USE THEREOF IN MEDICINE” (Haisco Pharmaceutical Group Co., Ltd., priority 2023, dated 2025)
Counter-ions that a name gives are not always drawn. Like-named read-outs stand apart in the source and are kept apart here.

How the values were obtained:
[1] = biological target: T1, soluble guanylate cyclase (sGC) (Homo sapiens, UniProt Q02108+Q02153); assay: In vitro detection experiment for soluble guanylate cyclase (sGC) activity (TR-FRET cGMP); format: biochemical; details: enzymatic agonism and/or activation of sGC; 1.5 nM sGC, 5 µM GTP, 100 µM DETA NONOate
T1 construct: purchased ICE S2304F-H07SH2
T1 sequence (Q02153 1-619): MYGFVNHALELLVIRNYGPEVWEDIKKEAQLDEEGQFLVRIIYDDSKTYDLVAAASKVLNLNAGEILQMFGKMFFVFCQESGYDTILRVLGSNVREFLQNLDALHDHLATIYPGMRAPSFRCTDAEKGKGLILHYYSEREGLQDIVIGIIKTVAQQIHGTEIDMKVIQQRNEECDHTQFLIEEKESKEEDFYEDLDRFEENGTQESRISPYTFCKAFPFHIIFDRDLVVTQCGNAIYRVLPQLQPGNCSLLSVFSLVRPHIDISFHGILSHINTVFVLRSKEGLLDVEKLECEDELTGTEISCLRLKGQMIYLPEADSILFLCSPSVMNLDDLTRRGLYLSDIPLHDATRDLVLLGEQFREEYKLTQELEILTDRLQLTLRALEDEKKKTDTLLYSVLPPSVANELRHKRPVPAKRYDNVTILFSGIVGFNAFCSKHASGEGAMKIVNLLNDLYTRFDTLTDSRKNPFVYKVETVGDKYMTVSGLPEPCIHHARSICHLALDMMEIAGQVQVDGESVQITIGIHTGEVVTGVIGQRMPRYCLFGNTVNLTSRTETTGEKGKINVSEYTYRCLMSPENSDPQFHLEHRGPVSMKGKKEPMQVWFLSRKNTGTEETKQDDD
T1 sequence (Q02108 1-690): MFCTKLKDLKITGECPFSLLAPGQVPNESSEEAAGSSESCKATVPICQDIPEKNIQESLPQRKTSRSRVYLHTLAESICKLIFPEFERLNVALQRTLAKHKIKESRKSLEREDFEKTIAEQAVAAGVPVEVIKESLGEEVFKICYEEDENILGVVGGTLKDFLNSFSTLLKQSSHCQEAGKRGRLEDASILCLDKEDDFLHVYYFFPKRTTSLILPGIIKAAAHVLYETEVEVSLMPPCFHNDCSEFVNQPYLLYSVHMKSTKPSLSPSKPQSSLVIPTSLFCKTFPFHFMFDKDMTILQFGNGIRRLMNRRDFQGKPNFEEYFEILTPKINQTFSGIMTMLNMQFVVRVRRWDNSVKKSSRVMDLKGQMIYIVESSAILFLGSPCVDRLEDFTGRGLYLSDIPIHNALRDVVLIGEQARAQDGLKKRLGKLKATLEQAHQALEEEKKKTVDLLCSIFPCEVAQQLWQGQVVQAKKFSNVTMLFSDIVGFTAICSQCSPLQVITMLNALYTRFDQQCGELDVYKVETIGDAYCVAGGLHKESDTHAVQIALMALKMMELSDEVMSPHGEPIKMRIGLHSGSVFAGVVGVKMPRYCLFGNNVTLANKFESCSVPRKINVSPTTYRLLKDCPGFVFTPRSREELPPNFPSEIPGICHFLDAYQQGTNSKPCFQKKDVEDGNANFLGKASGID
Protocol: First, 100 nL of the compounds at different concentrations were transferred to a 384-well reaction plate (Greiner, Cat. No. 784075) using Echo 655 (LABCYTE, Cat # 655), with the final DMSO concentration of 1% in the reaction mixture; 2 µL of sGC (ICE, Cat. No. S2304F-H07SH2) was added to the 384-well reaction plate, and the mixture was centrifuged at 1000 rpm for 1 min; and then 1 µL of DETA NONOate was added, and the mixture was incubated at 37°C for 10 min. After the incubation was completed, 2 µL of GTP was added, and the mixture was centrifuged at 1000 rpm for 1 min and reacted at 37°C for 60 min. In the reaction system, the final concentrations of sGC, GTP, and DETA NONOate were 1.5 nM, 5 µM, and 100 µM, respectively. After the reaction was completed, 5 µL of the test mixture (PerkinElmer, Cat. No. 62GM2PEG) was added, and the mixture was incubated at room temperature for 60 min. The TR-FRET signal (Ratio: 665/620 nm) was read using a microplate reader (BMG, Cat. No. PHERAstar FSX). A nonlinear regression curve was fitted using GraphPad Prism software, and EC50 values were calculated. Compound A (Example 1 in WO 2010065275) was used as a positive reference compound. The activation rate was calculated according to Equation 2-1, where Low control represents the TR-FRET signal value of 1 µM compound A, and High control represents the TR-FRET signal value in the DMSO well. Stimulation% = (aveHighcontrol−cpdwell)/(ave High control−ave Low; control)*100% [formula] Table 2-1 Results of enzymatic agonism and/or activation of test compounds on soluble guanylate cyclase (sGC).

[2] = Mouse pharmacokinetic assay; format: in vivo, ICR mice; details: mice, i.g., 10 mg/kg, plasma
Protocol: Experimental objective: In this experiment, a single dose of test compounds was administered to ICR mice intravenously and intragastrically, the concentrations of the test compounds in the plasma of mice were measured, and the pharmacokinetic characteristics and bioavailability of the test compounds in mice were evaluated.
Experimental animals: male ICR mice, 20-35 g, purchased from Chengdu Dossy Experimental Animals Co., Ltd.
Experimental method: On the day of the experiment, the ICR mice were randomly grouped according to their body weight. The animals were fasted but with water available overnight before the administration, and fed 4 h after the administration.
Sampling: Blood was taken from the orbits at specified time points, and placed in an EDTAK2 centrifuge tube. The tube was centrifuged at 5000 rpm for 10 min, and the plasma was collected.
Time points for plasma collection in G1 group: 0, 5 min, 15 min, 30 min, 1 h, 2 h, 4 h, 7 h, and 24 h.
Time points for plasma collection in G2 group: 0, 5 min, 15 min, 30 min, 1 h, 2 h, 4 h, 7 h, and 24 h.
Before analysis and detection, all the samples were stored at -60°C or lower. The samples were analyzed quantitatively by LC-MS/MS. Table 3-1 PK data of test compound (i.e., drug) in mice

[3] = Rat pharmacokinetic assay; format: in vivo, SD rats; details: rats, i.g., 10 mg/kg, plasma
Protocol: Experimental animals: male SD rats, 180-200 g, purchased from Chengdu Dossy Experimental Animals Co., Ltd.
Experimental design: On the day of the experiment, the SD rats were randomly grouped according to their body weight. The animals were fasted but with water available overnight before the administration, and fed 4 h after the administration.
Blood was taken from the orbits at specified time points, and placed in an EDTAK2 centrifuge tube. The tube was centrifuged at 5000 rpm for 10 min, and the plasma was collected.
Blood sampling time points for the intravenous administration group: 0, 5 min, 15 min, 30 min, 1 h, 2 h, 4 h, 7 h and 24 h; blood sampling time points for the intragastric administration group: 0, 5 min, 15 min, 30 min, 1 h, 2 h, 4 h, 7 h and 24 h. Before analysis and detection, all the samples were stored at -60°C or lower. The samples were analyzed quantitatively by LC-MS/MS. Table 4-1 PK data of test compound (i.e., drug) in rats

[4] = Stability test in rat liver microsomes; format: in vitro ADME
Protocol: At 37°C, 1 µM of the test compound was incubated with rat liver microsomes (0.5 mg/mL) supplemented with an NADPH regeneration system for 5, 10, 20, 30 and 60 minutes, and then the LC-MS/MS method was used to detect the concentration of the test compound in the resulting sample. The half-life (T1/2) and intrinsic clearance (CLint(mic)) of the compound in rat liver microsome solution were obtained by calculating the remaining percentage of the compound at the corresponding time points.

[5] = rat liver microsomes 0.5 mg/mL, 1 µM compound, NADPH regeneration system, 37°C
[6] = rat, microsomes, rat liver microsomes 0.5 mg/mL, 1 µM compound, NADPH regeneration system, 37°C
[7] = rat, microsomes, rat liver microsomes 0.5 mg/mL, 1 µM compound, NADPH regeneration system, 37°C, read-out: CLint(mic)
[8] = rat liver microsomes 0.5 mg/mL, 1 µM compound, NADPH regeneration system, 37°C, 1 µM

Compound | EC50 [1] | AUC ([3]; rat, po, read-out: AUC) | AUC ([2]; mouse, po, read-out: AUC) | also measured
CC(C)CN1CCN(c2ccc(-c3c(F)cc(Cl)cc3N3CCCC(n4ncc(C(=O)O)c4C(F)F)C3)cc2)CC1 (racemic) [Compound 1] | < 0.02 µM |  |  | 
CC(C)CN1CCN(c2ccc(-c3c(F)cc(Cl)cc3N3CCCC(n4ncc(C(=O)O)c4C(F)F)C3)cc2)CC1 (single isomer, unassigned) [Compound 1-1] |  |  |  | AUC ([2]; mouse, in vivo, po, read-out: AUC): > 10 µg·h/mL; AUC ([3]; rat, in vivo, po, read-out: AUC): > 10 µg·h/mL; half-life at 1 µM [4, 5]: 0.727 h; microsomal CLint at 1 µM ([4]; rat, microsomes): 31.8 µL/min/mg
CC(C)CN1CCN2c3ccc(-c4ccc(Cl)cc4N4CCC[C@@H](n5ncc(C(=O)O)c5C(F)F)C4)cc3CCC2C1 (single isomer, unassigned) [Compound 8-1] | < 0.02 µM | > 10 µg·h/mL |  | AUC [2]: > 10 µg·h/mL; half-life at 1 µM [4, 6]: 2.53 h; microsomal CLint at 1 µM [4, 7]: 9.13 µL/min/mg
CC(C)CN1CCN2c3ccc(-c4ccc(Cl)cc4N4CCC[C@H](n5ncc(C(=O)O)c5C(F)F)C4)cc3CCC2C1 (single isomer, unassigned) [Compound 8-2] | < 0.02 µM | > 10 µg·h/mL | > 10 µg·h/mL | half-life at 1 µM [4, 6]: 1.63 h; microsomal CLint at 1 µM [4, 7]: 14.1 µL/min/mg
CC(C)CN1CCN2c3ccc(-c4ccc(Cl)cc4N4CCC[C@@H](n5ncc(C(=O)O)c5C(F)F)C4)cc3CCC2C1 (single isomer, unassigned) [Compound 9-1] | < 0.02 µM |  | > 10 µg·h/mL | AUC [3]: > 10 µg·h/mL; CLint(mic) [4, 8]: 11.0 µL/min/mg; T1/2 [4, 8]: 2.1 h
CC(C)CN1CCN(c2ccc(-c3ccc(C(F)F)cc3N3CCC[C@@H](n4ncc(C(=O)O)c4C(F)F)C3)cc2)CC1 [Compound 3-1] | < 0.02 µM | > 10 µg·h/mL | > 10 µg·h/mL | 
CC(C)CN1CCN(c2ccc(-c3ccc(C(F)F)cc3N3CCC[C@H](n4ncc(C(=O)O)c4C(F)F)C3)cc2)CC1 [Compound 3-2] | < 0.02 µM |  |  | 
CC(C)CN1CCN2c3cc(F)c(-c4ccc(Cl)cc4N4CCC[C@@H](n5ncc(C(=O)O)c5C(F)F)C4)cc3CC[C@H]2C1 [Compound 5-1] | < 0.02 µM | > 10 µg·h/mL | > 10 µg·h/mL | half-life at 1 µM [4, 6]: 2.33 h; microsomal CLint at 1 µM [4, 7]: 9.87 µL/min/mg
CC(C)CN1CCN2c3cc(F)c(-c4ccc(Cl)cc4N4CCC[C@H](n5ncc(C(=O)O)c5C(F)F)C4)cc3CC[C@H]2C1 [Compound 5-2] | < 0.02 µM |  | > 10 µg·h/mL | 
CC(C)CN1CCN2c3cc(F)c(-c4ccc(Cl)cc4N4CCC[C@@H](n5ncc(C(=O)O)c5C(F)F)C4)cc3CC[C@@H]2C1 [Compound 6-1] | < 0.02 µM | > 10 µg·h/mL | > 10 µg·h/mL | half-life at 1 µM [4, 6]: 1.87 h; microsomal CLint at 1 µM [4, 7]: 12.4 µL/min/mg
CC(C)CN1CCN2c3ccc(-c4ccc(Cl)cc4N4CCCC(n5ncc(C(=O)O)c5C(F)F)C4)cc3CCC2C1 (stereo not shown) [Compound 8] | < 0.02 µM |  |  | 
CC(C)CN1CC2CCC(C1)N2c1ccc(-c2ccc(Cl)cc2N2CCCC(n3ncc(C(=O)O)c3C(F)F)C2)cc1 (stereo not shown) [Compound 10] | < 0.02 µM |  |  | 
CC(C)CN1CCN(c2ccc(-c3ccc(Cl)cc3N3CCC[C@@H](n4ncc(C(=O)O)c4C(F)F)C3)cc2)CC1 [Control compound 1, reference compound] |  |  |  | half-life at 1 µM [4, 5]: 0.183 h; microsomal CLint at 1 µM ([4]; rat liver microsomes 0.5 mg/mL, 1 µM compound, NADPH regeneration system, 37°C, read-out: CLint(mic)): 126 µL/min/mg
CC(C)CN1CCN2c3cc(F)c(-c4ccc(Cl)cc4N4CCCC(n5ncc(C(=O)O)c5C(F)F)C4)cc3CC[C@H]2C1 (stereo partly shown) [Trifluoroacetate salt of Compound 5] | < 0.02 µM |  |  | 
CC(C)CN1CC=C(c2ccc(-c3ccc(Cl)cc3N3CCCC(n4ncc(C(=O)O)c4C(F)F)C3)cc2)CC1 (stereo not shown) [Trifluoroacetate salt of Compound 11] | < 0.02 µM |  |  | 
CC(C)CN1CCC(c2ccc(-c3ccc(Cl)cc3N3CCCC(n4ncc(C(=O)O)c4C(F)F)C3)cc2)CC1 (stereo not shown) [Trifluoroacetate salt of Compound 12] | < 0.02 µM |  |  | 
